We go through 18 compounds from patent US12583870B2, “Azaheteroaryl compound and application thereof” (SHANGHAI BLUERAY BIOPHARMA CO., LTD., priority 2019, dated 2026).

Assay [1] concerns trimethylation level of histone H3K27 in G401 cells. The assay is described as follows: ELISA (H3K27 trimethylation) analysis in G401 cells. The format is cell-based. The conditions noted are these: Homo sapiens, G-401, 72 hours, H3K27me3 standardized to H3. The procedure: 3-fold series dilution with DMSO was carried out on the representative compounds of the present disclosure; and 10 concentration gradients were detected for each compound, with the highest detection concentration of 10 μM. The compounds were diluted 200-fold into the G401 cells cultured in a 96-well plate (DMSO at a final concentration of 0.5%). After the cells, administered with the compound, were cultured for 72 hours, the trimethylation level of the histone H3K27 was detected using the ELISA method.
Extraction of the histone: in a 96-well plate, the compound-treated cells were washed three times with 1×PBS (10×PBS buffer (80 g NaCl (Sigma, product number S3014), 2 g KCl (Sigma, product number 60128), 14.4 g Na2HPO4 (Sigma, product number S5136), and 2.4 g KH2PO4 (Sigma, product number P9791) in 1 L of water, adjusting the pH to 7.4)). 100 μL of 0.4 N HCl was added into each well. The plate was placed at 4° C. and gently agitated for 2 hours to lyse the cells. The cell lysate was then neutralized with 80 μL of neutralization buffer (0.5 M disodium hydrogen phosphate, pH 12.5, 2.5 mM DTT; 1% cocktail (Sigma, product number P8340)) (the cell lysate and the neutralization buffer were thoroughly mixed to uniformity).
ELISA detection method: the cell lysate was transferred in parallel to two 384-well detection plates (PerkinElmer, OptiPlate-384HB, product number 6007290), wherein one of the plates was used to detect the H3K27 trimethylation level and the other plate was used to determine the level of H3. PBS was used to adjust the final volume to 50 μL/well. The plates were coated at 4° C. overnight. On the following day, the solution inside the wells was discarded and the plates were washed 5 times with TBST buffer (1×TBS (10×TBS: 24.2 g Tris (Sigma, product number T6066), 80 g NaCl (Sigma, product number S3014) in 1 L of water, adjusting the pH with HCl to 7.6), 0.1% Tween-20) and dried on an absorbent paper by inversion. 70 μL of blocking buffer (TBST, 5% BSA) was added into the coated reaction wells and the plates were incubated at room temperature for 1 hour. The blocking buffer was discarded and primary antibodies were added (30 μL/well). The desired primary antibodies were all diluted with a blocking buffer and the dilution factor was as follows: anti-H3K27me3 antibody (Cell Signaling Technology, product number 9733), 1:2000 dilution; anti-H3 antibody (Cell Signaling Technology, product number 4499), 1:10000 dilution. After the primary antibodies were added, the plates were placed at room temperature and incubated for 1 hour. After the plates were washed with TBST 5 times, the plates were dried by inversion. A secondary antibody (30 μL/well) was added to each of the reaction wells and the plates were incubated at room temperature for 1 hour. The secondary antibody (anti-rabbit antibody (Jackson ImmunoResearch, product number 111-035-003)) was diluted 2000-fold with a blocking buffer before use. After 1 hour, the plates were washed with TBST and dried by inversion. 30 μL of ECL substrate (Pierce, product number 34080) was added into each well and centrifuged at 2000 rpm for 30 seconds. The signal of each sample was detected using SpectraMax (Molecular Devices). Data processing: H3K27 methylation readings were first standardlized using H3 signals and 0.5% DMSO-treated samples was used as the control to calculate the inhibition percentage of the compounds. Data were fit to obtain Dose-Response curves using the GraphPad prism 5 program and the IC50 values of the test compounds were obtained.

The subject of a further assay is KARPAS-422 cells. Kind of assay: Cell proliferation analysis, KARPAS-422, 13 days, CellTiter-Glo. The conditions noted are these: Homo sapiens, 312 h. The format is cell-based. The procedure: Human B-cell non-Hodgkin lymphoma cells, KARPAS-422 S, were cultured in a culture flask using standard cell culture conditions. The medium contained 15% fetal bovine serum (FBS, Invitrogen, product number 10099-141) and 1% penicillin/streptomycin solution (P/S) RPMI-1640 (Invitrogen, product number 11875), and the culture flask was placed and cultured in a sterile incubator at the temperature of 37° C. and […] with a relative humidity of […] To detect the effect of PRC2 inhibitors on cell proliferation, cells in exponential growth phase were taken and seeded into a 96-well plate (Corning, product number 3904) at a density of 1×10^4 cells/well, and 100 μL of the medium was added into each well. Subsequently, the compounds at different concentrations disclosed in the present disclosure were added into the wells where cells had already been seeded (9 concentration gradients were provided for each compound, with the highest detection concentration at 10 μM, 3-fold gradient dilution) and two replicates in parallel were provided for each treatment concentration. DMSO was at a final concentration of 0.5%. Afterwards, viable cell numbers were determined using Vi-CELL (Beckman Coulter) every 3-4 days. Cells counted were seeded into a new 96-well plate at the same density (1×10^4 cells/well) each time. The wells were supplemented with a fresh medium to 100 μL and at the same time, compounds at different concentrations were added. The cells were cultured to day 13. 100 μL of CellTiter-Glo (CellTiter-GloCellTiter-GloCellTiter-GloCTG) (Promega, product number G7573) was added into each well. The plate was placed in the dark at room temperature for 10-20 minutes and the luminescence signal was read using SpectraMax i3× (Molecular Devices).
A general note: In ATP-based viability assays light output follows the ATP content of the culture.

In general, IC50 refers to the concentration that inhibits the measured activity by half.

In the case of `Cc1ccc(-c2cnc(NCc3c(F)ccc4c3CCO4)n3cnnc23)c2nnc(C)n12`, in assay [1], the IC50 is 0.0008 µM.

On to `CC(C)(O)COCc1ccc(-c2cnc(NCc3c(F)ccc4c3CCO4)n3cnnc23)c2ncnn12` [1-((8-(5-(((5-fluoro-2,3-dihydrobenzofuran-4-yl)methyl)amino)-[1,2,4]triazolo[4,3-c]pyrimidin-8-yl)-[1,2,4]triazolo[1,5-a]pyridin-5-yl)methoxy)-2-methylpropan-2-ol], for which the IC50 was 0.0064 µM in assay [1] and 0.0012 µM in the assay with KARPAS-422 cells. Regarding `CC(C)(O)CNCc1ccc(-c2cnc(NCc3c(F)ccc4c3CCO4)n3cnnc23)c2ncnn12` [1-(((8-(5-(((5-fluoro-2,3-dihydrobenzofuran-4-yl)methyl)amino)-[1,2,4]triazolo[4,3-c]pyrimidin-8-yl)-[1,2,4]triazolo[1,5-a]pyridin-5-yl)methyl)amino)-2-methylpropan-2-ol], the IC50 was determined as 0.0022 µM in assay [1] and 0.0021 µM in the assay on KARPAS-422 cells. The corresponding values for `Cc1ccc(-c2cnc(NCc3c(F)ccc4c3CCO4)n3cnnc23)c2ncc(CC(=O)N3CCOCC3)n12` [2-(8-(5-(((5-fluoro-2,3-dihydrobenzofuran-4-yl)methyl)amino)-[1,2,4]triazolo[4,3-c]pyrimidin-8-yl)-5-methylimidazo[1,2-a]pyridin-3-yl)-1-morpholinoethan-1-one] are 0.0143 µM and 0.0057 µM. The corresponding values for `Cc1ccc(-c2cnc(NCc3c(F)ccc4c3CCO4)n3cnnc23)c2ncc(CC#N)n12` [2-(8-(5-(((5-fluoro-2,3-dihydrobenzofuran-4-yl)methyl)amino)-[1,2,4]triazolo[4,3-c]pyrimidin-8-yl)-5-methylimidazo[1,2-a]pyridin-3-yl)acetonitrile] are 0.007 µM and 0.0014 µM. The corresponding values for `CC(C)(O)c1ccc(-c2cnc(NCc3c(F)ccc4c3CCO4)n3cnnc23)c2ncnn12` [2-(8-(5-(((5-fluoro-2,3-dihydrobenzofuran-4-yl)methyl)amino)-[1,2,4]triazolo[4,3-c]pyrimidin-8-yl)-[1,2,4]triazolo[1,5-a]pyridin-5-yl)propan-2-ol] are 0.0004 µM and 0.0002 µM. With `CN(C)Cc1ccc(-c2cnc(NCc3c(F)ccc4c3CCO4)n3cnnc23)c2ncc(C#N)n12` [5-((dimethylamino)methyl)-8-(5-(((5-fluoro-2,3-dihydrobenzofuran-4-yl)methyl)amino)-[1,2,4]triazolo[4,3-c]pyrimidin-8-yl)imidazo[1,2-a]pyridine-3-carbonitrile], the IC50 in assay [1] was 0.0007 µM; in the assay with KARPAS-422 cells, 0.0005 µM. `CN(C)c1ccc(-c2cnc(NCc3c(F)ccc4c3CCO4)n3cnnc23)c2ncc(C#N)n12` [5-(dimethylamino)-8-(5-(((5-fluoro-2,3-dihydrobenzofuran-4-yl)methyl)amino)-[1,2,4]triazolo[4,3-c]pyrimidin-8-yl)imidazo[1,2-a]pyridine-3-carbonitrile]: the half-maximal inhibitory concentration (IC50) (in assay [1]; in the assay with KARPAS-422 cells) was 0.0009 µM throughout. For the compound `CN(C)C(=O)c1cnc2c(-c3cnc(NCc4c(F)ccc5c4CCO5)n4cnnc34)cc(F)cn12` [6-fluoro-8-(5-(((5-fluoro-2,3-dihydrobenzofuran-4-yl)methyl)amino)-[1,2,4]triazolo[4,3-c]pyrimidin-8-yl)-N,N-dimethylimidazo[1,2-a]pyridine-3-carboxamide], the half-maximal inhibitory concentration (IC50) in assay [1] stood at 0.0047 µM; in the assay with KARPAS-422 cells it was 0.0024 µM.

Regarding `N#Cc1cc(-c2cnc(NCc3c(F)ccc4c3CCO4)n3cnnc23)c2ncnn2c1` [8-(5-(((5-fluoro-2,3-dihydrobenzofuran-4-yl)methyl)amino)-[1,2,4]triazolo[4,3-c]pyrimidin-8-yl)-[1,2,4]triazolo[1,5-a]pyridine-6-carbonitrile], in assay [1], the midpoint of inhibition, the IC50, lay at 0.0143 µM.

`Fc1ccc2c(c1CNc1ncc(-c3ccc(C(F)F)n4ncnc34)c3nncn13)CCO2` [8-(5-(difluoromethyl)-[1,2,4]triazolo[1,5-a]pyridin-8-yl)-N-((5-fluoro-2,3-dihydrobenzofuran-4-yl)methyl)-[1,2,4]triazolo[4,3-c]pyrimidin-5-amine]: the IC50 in assay [1] was 0.0055 µM. The same measure, in the same setting: with `Cc1nc2c(-c3cnc(NCc4c(F)ccc5c4CCO5)n4cnnc34)ccc(N(C)C)n2n1` [8-(5-(dimethylamino)-2-methyl-[1,2,4]triazolo[1,5-a]pyridin-8-yl)-N-((5-fluoro-2,3-dihydrobenzofuran-4-yl)methyl)-[1,2,4]triazolo[4,3-c]pyrimidin-5-amine] the figure was 0.0006 µM. Same read-out and setting: the value for `CN(C)c1c(F)cc(-c2cnc(NCc3c(F)ccc4c3CCO4)n3cnnc23)c2ncnn12` [8-(5-(dimethylamino)-6-fluoro-[1,2,4]triazolo[1,5-a]pyridin-8-yl)-N-((5-fluoro-2,3-dihydrobenzofuran-4-yl)methyl)-[1,2,4]triazolo[4,3-c]pyrimidin-5-amine] was 0.0028 µM. Still for that read-out and setting: with `CN(C)c1ncc(-c2cnc(NCc3c(F)ccc4c3CCO4)n3cnnc23)c2ncnn12` [8-(5-(dimethylamino)-[1,2,4]triazolo[1,5-c]pyrimidin-8-yl)-N-((5-fluoro-2,3-dihydrobenzofuran-4-yl)methyl)-[1,2,4]triazolo[4,3-c]pyrimidin-5-amine] the figure was 0.0018 µM; with `CN(C)c1ccc(-c2cnc(NCc3c(F)ccc4c3CCO4)n3cnnc23)c2nncn12` [8-(5-(dimethylamino)-[1,2,4]triazolo[4,3-a]pyridin-8-yl)-N-((5-fluoro-2,3-dihydrobenzofuran-4-yl)methyl)-[1,2,4]triazolo[4,3-c]pyrimidin-5-amine], 0.0078 µM. For `CP(C)(=O)c1cnc2c(-c3cnc(NCc4c(F)ccc5c4CCO5)n4cnnc34)cc(F)cn12` [(6-fluoro-8-(5-(((5-fluoro-2,3-dihydrobenzofuran-4-yl)methyl)amino)-[1,2,4]triazolo[4,3-c]pyrimidin-8-yl)imidazo[1,2-a]pyridin-3-yl)dimethylphosphine oxide], the half-maximal inhibitory concentration (IC50) in assay [1] was found to be 0.0023 µM. `CCOC(=O)c1cnc2c(-c3cnc(NCc4c(F)ccc5c4CCO5)n4cnnc34)ccc(C)n12` [Ethyl 8-(5-(((5-fluoro-2,3-dihydrobenzofuran-4-yl)methyl)amino)-[1,2,4]triazolo[4,3-c]pyrimidin-8-yl)-5-methylimidazo[1,2-a]pyridine-3-carboxylate] had an IC50 with KARPAS-422 cells of 0.0047 µM.

In assay [1], `Cc1ccc(-c2cnc(NCc3c(F)ccc4c3CCO4)n3cnnc23)c2ncc(S(C)(=O)=O)n12` [N-((5-fluoro-2,3-dihydrobenzofuran-4-yl)methyl)-8-(5-methyl-3-(methylsulfonyl)imidazo[1,2-a]pyridin-8-yl)-[1,2,4]triazolo[4,3-c]pyrimidin-5-amine] gave a half-maximal inhibitory concentration (IC50) of 0.088 µM.
